Experimental data from patent publication US20090068290A1, “BIFEPRUNOX DOSES FOR TREATING SCHIZOPHRENIA” (priority 2006, published 2009).

How the values were obtained:
[1] = Clinical laboratory assessments (prolactin), Clinical Study Three; details: olanzapine 15 mg; 6 weeks
Description: To assess the safety and tolerability of bifeprunox using physical examination, weight, waist circumference, vital signs (pulse rate and systolic/diastolic blood pressure [BP], and oral temperature), 12-lead electrocardiogram (ECG), clinical laboratory assessments (hematology, biochemistry including fasting insulin level, fasting glucose, fasting lipid profile, urinalysis, special laboratory assessments for prolactin, IGF-1, IGFBP-3, and thyroid function), need for anticholinergic treatment during double-blind treatment period, concomitant medication use, adverse event (AE) monitoring, and assessments of abnormal movement including the Simpson-Angus Scale (SAS), Barnes Akathisia Scale (BAS), and Abnormal Involuntary Movement Scale (AIMS).

[2] = system: adult subjects with schizophrenia; experiment: PANSS negative subscale score, Clinical Study One; format: in vivo, human; details: Risperidone 6 mg, ITT
Description: (§1) There were five treatment groups in this study. […] Study medication was administered once daily. After Baseline measurements were performed, the titration phase was begun. Bifeprunox treated subjects were titrated up to 5 mg, 10 mg or 20 mg according to a standardized titration schedule (Day 1: 0.125 mg, Day 2: 0.25 mg, Day 3: 0.5 mg, Day 4: 1.0 mg, Day 5: 2.0 mg, Day 6: 5.0 mg, Day 7: 10.0 mg, Day 8: 20 mg). When the assigned dose was reached, subjects were maintained at that dose for the remainder of the six-week treatment period.
(§2) The change in the Positive and Negative Symptom Scale (PANSS) total score, from baseline to endpoint, was the primary outcome measure. Secondary efficacy measures included: PANSS positive, PANSS negative, PANSS general psychopathology (GPP) score, PANSS-derived Brief Psychiatric Rating Scale (BPRS) score, Clinical Global Impressions-Severity of Illness (CGI-S), CGI-Improvement (CGI-I) scores, and responder rates. Safety and tolerability evaluations included extrapyramidal symptoms (EPS), weight gain, lipid profile, and serum prolactin.

[3] = system: adult subjects with schizophrenia; experiment: PANSS general psychopathology subscale score, Clinical Study One; format: in vivo, human; details: Risperidone 6 mg, ITT population
Description: as §1, §2

[4] = Body weight, Clinical Study One; format: in vivo, human; details: Risperidone 6 mg
Description: Statistical testing of the change from Baseline in weight was performed using similar methodology to that used for the secondary efficacy parameters (an ANCOVA model with factors for treatment and weight at Baseline). Pairwise comparisons of the bifeprunox treatment groups versus placebo were all statistically significant (bifeprunox 5 mg [p=0.025], bifeprunox 10 mg [p=0.009] and bifeprunox 20 mg [p=0.031] for the difference between bifeprunox and placebo mean change from Baseline in weight at Endpoint.

## Cc1cc2c(s1)Nc1ccccc1N=C2N1CCN(C)CC1 [Olanzapine, olanzapine, reference compound]
[1]
  prolactin: increases in prolactin

## Cc1nc2n(c(=O)c1CCN1CCC(c3noc4cc(F)ccc34)CC1)CCCC2 [Risperidone, risperidone, reference compound]
[2]; Endpoint LOCF
  Change from Baseline in PANSS Negative Subscale Score, Mean (S.D.): −3.6 (4.6)
  Change from Baseline in PANSS Negative Subscale Score, Median: −3
[2]; Week 1, LOCF
  Change from Baseline in PANSS Negative Subscale Score, Mean (S.D.): −2.1 (3.5)
  Change from Baseline in PANSS Negative Subscale Score, Median: −1
[2]; Week 2, LOCF
  Change from Baseline in PANSS Negative Subscale Score, Mean (S.D.): −3.0 (4.2)
  Change from Baseline in PANSS Negative Subscale Score, Median: −3
[2]; Week 3, LOCF
  Change from Baseline in PANSS Negative Subscale Score, Mean (S.D.): −3.5 (4.2)
  Change from Baseline in PANSS Negative Subscale Score, Median: −3
[2]; Week 4, LOCF
  Change from Baseline in PANSS Negative Subscale Score, Mean (S.D.): −3.2 (4.3)
  Change from Baseline in PANSS Negative Subscale Score, Median: −3
[3]; Endpoint LOCF
  Change from Baseline in PANSS General Psychopathology Subscale Score, Mean (S.D.): −6.8 (7.8)
  Change from Baseline in PANSS General Psychopathology Subscale Score, Median: −5
[3]; Week 1, LOCF
  Change from Baseline in PANSS General Psychopathology Subscale Score, Mean (S.D.): −3.4 (5.8)
  Change from Baseline in PANSS General Psychopathology Subscale Score, Median: −3
[3]; Week 2, LOCF
  Change from Baseline in PANSS General Psychopathology Subscale Score, Mean (S.D.): −5.8 (7.1)
  Change from Baseline in PANSS General Psychopathology Subscale Score, Median: −6
[3]; Week 3, LOCF
  Change from Baseline in PANSS General Psychopathology Subscale Score, Mean (S.D.): −6.9 (7.3)
  Change from Baseline in PANSS General Psychopathology Subscale Score, Median: −6
[3]; Week 4, LOCF
  Change from Baseline in PANSS General Psychopathology Subscale Score, Mean (S.D.): −6.3 (7.7)
  Change from Baseline in PANSS General Psychopathology Subscale Score, Median: −5
[4]
  mean weight change (increase): 4.8 lb
  subjects who decreased their weight by ≧7%: No subjects
  subjects who increased their weight by ≧7%: 13%
